What was measured:
[1] = target: T1, FL-CHK-1 (Homo sapiens, UniProt O14757); test: CHK-1 coupled spectrophotometric assay (Syntide-2); format: biochemical; conditions: @ 1 μM; read-out: CHK-1 percent inhibition
T1 construct: C-terminally His-tagged full-length human CHK-1 (FL-CHK-1); made in house; host or cells: baculovirus/insect cells
T1 sequence (O14757 1-476): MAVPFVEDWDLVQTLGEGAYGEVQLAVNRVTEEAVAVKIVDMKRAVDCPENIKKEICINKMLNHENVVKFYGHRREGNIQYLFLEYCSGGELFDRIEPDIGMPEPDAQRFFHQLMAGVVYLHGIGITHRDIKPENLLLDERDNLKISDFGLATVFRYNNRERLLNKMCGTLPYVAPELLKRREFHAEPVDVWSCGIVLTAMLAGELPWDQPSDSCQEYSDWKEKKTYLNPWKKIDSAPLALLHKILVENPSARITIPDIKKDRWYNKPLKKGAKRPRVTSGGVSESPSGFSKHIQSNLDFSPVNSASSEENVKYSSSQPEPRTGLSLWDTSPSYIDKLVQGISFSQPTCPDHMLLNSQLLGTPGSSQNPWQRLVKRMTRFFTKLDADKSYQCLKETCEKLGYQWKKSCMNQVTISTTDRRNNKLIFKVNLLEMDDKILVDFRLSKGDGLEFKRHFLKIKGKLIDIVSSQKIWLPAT
Description: C-terminally His-tagged full-length human CHK-1 (FL-CHK-1) was expressed using the baculovirus/insect cell system. It contains 6 histidine residues (6×His-tag) at the C-terminus of the 476 amino acid human CHK-1. The protein was purified by conventional chromatographic techniques.
The production of ADP from ATP that accompanies phosphoryl transfer to the synthetic substrate peptide Syntide-2 ([…]) was coupled to oxidation of NADH using phosphoenolpyruvate (PEP) through the actions of pyruvate kinase (PK) and lactic dehydrogenase (LDH). The oxidation of NADH was monitored by following the decrease of absorbance at 340 nm (ε340=6.22 cm−1 mM^−1) using a HP8452 spectrophotometer. Typical reaction solutions contained: […]; 0.15 mM NADH; 28 units of LDH/ml; 16 units of PK/ml; 3 mM DTT; 0.125 mM Syntide-2; 0.15 mM ATP; 25 mM MgCl2 in 50 mM TRIS, pH 7.5; and 400 mM NaCl. Assays were initiated with 10 nM of FL-CHK-1. Ki values were determined by measuring initial enzyme activity in the presence of varying concentrations of test compounds. The data were analyzed using Enzyme Kinetic and Kaleidagraph software.

Row | inhibition at 1 µM [1] | melting point | Compound
1 | 7% |  | O=C(Nc1ccc(N2CCCC2)c(C(F)(F)F)c1)c1cccc(CCc2cc(Nc3cccnc3)n[nH]2)c1 [Example G-11]
2 | 10% |  | CC(=O)Nc1ccc(COc2cccc(C(=O)Nc3ccc4nc(C)ccc4c3)c2)cn1 [Example N-1, 3-(6-Acetylaminopyridin-3-yl)methoxy-N-(2-methyl-quinolin-6-yl)-benzamide]
3 | 8% |  | Cc1cc(NC(=O)c2ccc(F)c(OCc3cncc4ccccc34)c2)ccc1C(C)C [Example K-10, N-(4-Isopropyl-3-methyl-phenyl)-4-fluoro-3-(Isoquinolin-4-yl)methoxy-benzamide]
4 |  | 172 to 174 °C | Cc1ccc2cc(NC(=O)c3cccc(SCc4cc(Nc5ccccc5)n[nH]4)c3)ccc2n1 [Example E-1, N-(2-methyl-quinolin-6-yl)-3-[{5-(phenylamino)-2-H-pyrazol-3-yl}methylsulfanyl]benzamide]
